Measurements from US5904929A, “Acylated cyclodextrin-containing pharmaceutical composition” (Janssen Pharmaceutica, N.V., priority 1997, dated 1999).

Experiments:
[1] = J. Pharm. Pharmacol. 1994, 46: 714-717; cited from earlier work
[2] = Detaching force of films, probe tack tester (Example 1); assay type: physicochemical; conditions: films on polyethylene terephthalate; compared with HPC, HPMC and PHEMA; probe tack tester (FIG. 1)
Protocol: Pervaleryl-β-cyclodextrin (TV-β-CyD)-containing absolute ethanol solution (concentration: 150 mg/ml) was added dropwise onto a backing membrane (polyethylene terephthalate film) using a microsyringe, and allowed to stand at 25° C. for 24 hours to evaporate ethanol, whereby films of TV-β-CyD having adhesion were obtained.
The detaching force on the films of TV-β-CyD and on the films derived from various hydrophilic macromolecules (hydroxypropylcellulose (HPC), hydroxypropyl methylcellulose (HPMC) and polyhydroxyethyl methacrylate (PHEMA)) was measured using a probe tack tester (produced by Rigaku Kogyo Co.). The films of hydrophilic macromolecules were prepared as described with respect to TV-β-CyD.

[3] = system: cutis of the back of female hairless mice; assay: Cutis irritativeness, histology of back skin of hairless mice (Example 2); assay type: in vivo; conditions: 16 hours, light microscopy
Protocol: There was stuck 150 mg of TV-β-CyD, in the shape of a circle with a diameter of […], on the back of female hairless mice at the age of around 7 weeks (weight: […]), and 16 hours later, the cutis was extirpated. The extirpated cutis was fixed with 20% neutrally-buffered formalin solution and embedded in paraffin according to a usual manner, and tissue sections were prepared using a microtome. These sections were double stained with haematoxylin and Eosine, and observed by a light microscope. Untreated cutis was used as control. Moreover, a commercially available adhesive tape for patch test was applied on the same mice under the same condition, and, thereafter, the cutis tissue of the applied portion was extirpated for comparison.

Compound	drug release rate, compared with other acylated β-CyDs [1]	adhesion (detaching force), in comparison with hydrophilic macromolecules [2]	peeling of corneum ([3]; 150 mg, compared with commercially available adhesive tape for patch test)	abnormality such as inflammatory cellular infiltration ([3]; other sites (control))
CCCC(=O)OC[C@H]1O[C@@H]2O[C@H]3[C@H](OC(=O)CCC)[C@@H](OC(=O)CCC)[C@@H](O[C@H]4[C@H](OC(=O)CCC)[C@@H](OC(=O)CCC)[C@@H](O[C@H]5[C@H](OC(=O)CCC)[C@@H](OC(=O)CCC)[C@@H](O[C@H]6[C@H](OC(=O)CCC)[C@@H](OC(=O)CCC)[C@@H](O[C@H]7[C@H](OC(=O)CCC)[C@@H](OC(=O)CCC)[C@@H](O[C@H]8[C@H](OC(=O)CCC)[C@@H](OC(=O)CCC)[C@@H](O[C@H]1[C@H](OC(=O)CCC)[C@H]2OC(=O)CCC)O[C@@H]8COC(=O)CCC)O[C@@H]7COC(=O)CCC)O[C@@H]6COC(=O)CCC)O[C@@H]5COC(=O)CCC)O[C@@H]4COC(=O)CCC)O[C@@H]3COC(=O)CCC [TB-β-CyD, perbutanoyl-β-cyclodextrin]	remarkably retards the drug release rate	–	–	–
CCCCC(=O)OC[C@H]1O[C@@H]2O[C@H]3[C@H](OC(=O)CCCC)[C@@H](OC(=O)CCCC)[C@@H](O[C@H]4[C@H](OC(=O)CCCC)[C@@H](OC(=O)CCCC)[C@@H](O[C@H]5[C@H](OC(=O)CCCC)[C@@H](OC(=O)CCCC)[C@@H](O[C@H]6[C@H](OC(=O)CCCC)[C@@H](OC(=O)CCCC)[C@@H](O[C@H]7[C@H](OC(=O)CCCC)[C@@H](OC(=O)CCCC)[C@@H](O[C@H]8[C@H](OC(=O)CCCC)[C@@H](OC(=O)CCCC)[C@@H](O[C@H]1[C@H](OC(=O)CCCC)[C@H]2OC(=O)CCCC)O[C@@H]8COC(=O)CCCC)O[C@@H]7COC(=O)CCCC)O[C@@H]6COC(=O)CCCC)O[C@@H]5COC(=O)CCCC)O[C@@H]4COC(=O)CCCC)O[C@@H]3COC(=O)CCCC [TV-β-CyD, Pervaleryl-β-cyclodextrin]	–	strongest in adhesion	peeling of corneum in the same degree as in the case of the commercially available adhesive tape	no abnormality such as inflammatory cellular infiltration
